Results as given in US20240141440A1, “METHODS FOR DETECTING ONCOGENIC KRAS MUTATIONS” (Duke University, priority 2022, published 2024).

How the values were obtained:
Type in all cases: in vivo, A/J mice
exon 2 of Kras = assay: Maximum depth sequencing (MDS) of Kras exon 2 from tissues of mice after urethane exposure
Protocol: (§1) Urethane treatment. 6-8-week-old male and female A/J mice (JAX Stock #000646) were intraperitoneally injected daily for three days with either urethane (Sigma U2500) dissolved in PBS (1 g·kg^−1) or the vehicle PBS alone. Mice were humanely euthanized 1, 2, 3, or 4 weeks after the last injection and the lung, liver, and pancreas collected for the extraction of genomic DNA. All mouse care and experiments were performed in accordance with protocols approved by the IACUC of Duke University.
(§2) Isolation of genomic DNA. MEF cells were resuspended in lysis buffer (100 mM NaCl, 10 mM Tris pH 7.6, 25 mM EDTA pH 8.0, and 0.5% SDS in H2O, supplemented with 20 μg·ml^−1 RNase A (Sigma)). Lung, pancreas, and liver (right lobe) from A/J mice (JAX Stock #000646) were cut into fine pieces and similarly resuspended in lysis buffer. Samples were incubated at 37° C. for 1 hour. 2 μl of 800 U·ml^−1 proteinase K (NEB) was then added to each sample, the samples were vortexed, and then incubated at 55° C. overnight. Genomic DNA was isolated by phenol/chloroform extraction followed by ethanol precipitation using standard procedures and quantified using Qubit fluorometer.
Maximum depth sequencing (MDS). The MDS assay^13 was adapted for mammalian Ras genes as follows. 20-50 μg of genomic DNA was incubated with StuI (NEB) for analysis of the transcribed strand of Kras exon 1, EcoRV (NEB) and EcoRI (NEB) for analysis of the non-transcribed strand of Kras exon 1, XmnI (NEB) for analysis of the non-transcribed strand of Kras exon 2, and PleI (NEB) for analysis of the transcribed strand of Kras exon 2, or HphI (NEB) for the analysis of the non-transcribed strand of Hras exon 2. Reaction conditions were 5 units of the indicated restriction enzyme and per 1 μg DNA per 20 μl reaction (e.g., 20 μg genomic DNA, 5 μl enzyme (20 units/μl), and 40 μl 10×buffer in 400 μl reaction). Digested genomic DNA was column purified using QIAquick PCR Purification Kit following the manufacturer's protocol (Qiagen) and resuspended in ddH2O (35 μl H2O per 10 μg DNA). The barcode and adaptor were added to the target DNA by incubating purified DNA with the appropriate barcode primer (see below) for one cycle of PCR. PCR reactions were comprised of 10 μg DNA, 2.5 μl of 10 μM barcode primer, 4 μl of 2.5 mM dNTP, 10 μl of 5×buffer (NEB), and 0.5 μl Q5® Hot Start High-Fidelity DNA Polymerase (NEB) in a total volume of 50 μl. The number of PCR reactions was scaled according to the amount of DNA. PCR conditions were 98° C. for 1 minute, barcode primer annealing temperate (see below) for 15 seconds, and 72° C. for 1 minute. […] The concentration of purified product was measured with SimpliNano spectrophotometer (GE Healthcare Life Sciences). […]

exon 1 of Kras = assay: MDS of Kras exon 1 from lungs of mice after urethane exposure
Protocol: as §1, §2
(§3) Maximum depth sequencing (MDS). The MDS assay^13 was adapted for mammalian Ras genes as follows. […] The concentration of purified product was measured with SimpliNano spectrophotometer (GE Healthcare Life Sciences). […]

exon 2 of Hras = assay: MDS of Hras exon 2 from lungs of mice after urethane exposure
Protocol: as §1, §2, §3

Kras Q61L = assay: Droplet digital PCR of Kras Q61L in lungs of mice after urethane exposure; conditions: 4 weeks post urethane exposure
Protocol: as §1
Droplet digital PCR (ddPCR). ddPCR was performed using the QX200 AutoDG Droplet Digital PCR System (Bio-Rad) following the manufacturer's protocol in a 22 μl ddPCR reaction containing 11 μl of 2×ddPCR SuperMix for probes (no dUTP) (Bio-Rad), 66 ng template DNA, 450 nM forward and reverse primers, and 250 nM FAM- and HEX-labelled probes. The primer and probe oligonucleotides were synthesized (IDT) based on sequences previously described^76 with minor modifications. The sequences for the primers are: Kras_Q61_For: 5′-[…]-3′ (SEQ ID NO: 205); and Kras_Q61_Rev: 5′-[…]-3′ (SEQ ID NO: 206). […] Plates were read on a QX200 droplet reader (Bio-Rad) and analyzed with QuantaSoft™ Analysis Pro software (version 1.0.596) (Bio-Rad) to assess the number of droplets positive for mutant DNA, wild-type DNA, both, or neither. […]

SMILES: CCOC(N)=O [urethane, ethyl carbamate]
- strand bias of mutagenesis (exon 2 of Kras; lung, both strands sequenced in two exons of Kras): bias for the non-transcribed strand
- most prominent substitution detected by MDS (exon 2 of Kras; lungs, Kras exon 2, all time points, urethane but not PBS): A>T transversion within the context of a 5′ C and 3′ any nucleotide
- oncogenic mutation at codon Q61 of Kras detected by MDS (exon 2 of Kras; lungs, non-transcribed strand of exon 2, 1-4 weeks after three daily i.p. injections, vs PBS): oncogenic L (and to a lesser extent R) mutation at codon Q61 preferentially in the urethane, but not PBS cohort of mice, as early as 1 week after exposure
- CAN→CTN transversions in liver and pancreas in comparison with the lung (exon 2 of Kras; non-transcribed strand of exon 2 of Kras, 1 and 4 weeks after urethane exposure): significantly fewer CAN→CTN transversions were recovered in the liver and pancreas
- oncogenic mutations in codon 12 or 13 of Kras (exon 1 of Kras; 1 week after urethane exposure): oncogenic mutations were rarely recovered in either codon 12 or 13
- oncogenic mutations in codon 12 or 13 of Kras (exon 1 of Kras; 4 weeks after urethane exposure): some G12 and G13 mutations were detected at a low frequency
- expansion of oncogenic mutations in Hras over time (exon 2 of Hras; 4 weeks vs 1 week): did not expand appreciably over time
- mutations in exon 2 of Hras (exon 2 of Hras; non-transcribed strand, 1 and 4 weeks after exposure): high prevalence of A>T followed by A>G mutations
- Q61L mutation frequency by droplet digital PCR (Kras Q61L): frequency similar to that determined by MDS
